Results taken from patent publication US20230357870A1 (priority 2020, published 2023).
“Also recorded” adds a separate entry of the source. Read-outs that look alike come from different tables or passages of the source.

What was measured:
[1] = system: T7-scv2-luc-GFP replicon (SEQ ID NO: 2); assay: microbe, parasite or virus in culture; assay type: cell-based, SARS-CoV-2
[2] = system: T7GG-scv2-luc-GFP replicon; assay: microbe, parasite or virus in culture; assay type: cell-based, SARS-CoV-2
[3] = system: pSmart BAC T7-scv2-replicon; assay: microbe, parasite or virus in culture; assay type: cell-based, SARS-CoV-2; settings: read-out: Antiviral activity (EC50) against T7-scv2-replicon
[4] = system: pSmart BAC T7-scv1-replicon; assay: microbe, parasite or virus in culture; assay type: cell-based, SARS-CoV-1; settings: read-out: Antiviral activity (EC50) against T7-scv1-replicon
[5] = system: pSmart BAC T7-mcv-replicon; assay: microbe, parasite or virus in culture; assay type: cell-based, MERS; settings: for EC50: read-out: Antiviral activity (EC50) against T7-mcv-replicon
[6] = Severe acute respiratory syndrome coronavirus 2, A549
[7] = Severe acute respiratory syndrome coronavirus 2, Calu-1
[8] = Severe acute respiratory syndrome coronavirus 2, HEK-293T
[9] = Severe acute respiratory syndrome coronavirus 2, Huh7.5
[10] = Severe acute respiratory syndrome coronavirus 2, Vero
[11] = Severe acute respiratory syndrome coronavirus, HEK-293T
[12] = Middle East respiratory syndrome-related coronavirus, HEK-293T

N#C[C@@]1(c2ccc3c(N)ncnn23)O[C@H](CO)[C@@H](O)[C@H]1O [GS-441524]
EC50 [1, 6]: 1470 ± 163 nM
EC50 [1, 7]: 1330 ± 270 nM
EC50 [1, 8]: 603 ± 131 nM
EC50 ([1]; Severe acute respiratory syndrome coronavirus 2, HEK-293T, 30 h, read-out: potency in inhibiting SARS-CoV-2 replicon replication (EC50), determined by % GFP signal): 645 ± 54.3 nM
EC50 ([1]; Severe acute respiratory syndrome coronavirus 2, HEK-293T, 30 h, read-out: potency in inhibiting SARS-CoV-2 replicon replication (EC50), determined by % luciferase activity): 502 ± 109 nM
EC50 [1, 9]: 1030 ± 354 nM
EC50 [1, 10]: 302 ± 19.8 nM
antiviral activity (in words) [2]: active
EC50 [2, 6]: 716 ± 311 nM
EC50 [2, 7]: 1000 ± 217 nM
EC50 [2, 8]: 657 ± 66.4 nM
EC50 [2, 9]: 831 ± 201 nM
EC50 [2, 10]: 324 ± 173 nM
EC50 [3, 8]: 603 ± 106 nM
EC50 [4, 11]: 1110 ± 86.5 nM
concentration to achieve 50% inhibition, MERS replicon compared with SARS-CoV-2 or SARS-CoV-1 replicon [5]: greater concentration
EC50 [5, 12]: 5580 ± 357 nM
cytotoxicity (293T cells): No cytotoxicity was detected

CC(C)(C)NC(=O)N[C@H](C(=O)N1C[C@H]2[C@@H]([C@H]1C(=O)NC(CC1CCC1)C(=O)C(N)=O)C2(C)C)C(C)(C)C (stereo partly shown) [MK-3034, Boceprevir]
EC50 [3, 8]: 3550 ± 346 nM
EC50 [4, 11]: 6410 ± 427 nM
EC50 [5, 12]: 4670 ± 519 nM

GC376
EC50 ([1]; read-out: potency in inhibiting SARS-CoV-2 replicon replication (EC50), determined by % GFP signal): 22 ± 5.13 nM
EC50 ([1]; read-out: potency in inhibiting SARS-CoV-2 replicon replication (EC50), determined by % luciferase activity): 29.2 ± 9.17 nM
antiviral activity (in words) [2]: highly potent; also recorded: modestly active
EC50 [3]: 20.8 ± 5.6 nM
EC50 [4]: 75.9 ± 23.2 nM
EC50 [5]: 35.2 ± 5.3 nM
cytotoxicity (293T cells): No cytotoxicity was detected

CCC(CC)COC(=O)[C@H](C)N[P@](=O)(OC[C@H]1O[C@@](C#N)(c2ccc3c(N)ncnn23)[C@H](O)[C@@H]1O)Oc1ccccc1 [Remdesivir, remdesivir]
EC50 [1, 6]: 184 nM
EC50 [1, 7]: 62.8 nM
EC50 [1, 8]: 11.3 nM
EC50 [1, 9]: 18.9 nM
EC50 [1, 10]: 2240 nM
EC50 [3, 8]: 15.6 ± 5.1 nM
EC50 [4, 11]: 42.9 ± 3.4 nM
EC50 [5, 12]: 81.5 ± 8.8 nM

PF-00835231
fold lower in Vero cells [2]: 75-300 fold
EC50 [3]: 74.8 ± 20 nM
EC50 [4]: 167 ± 15.3 nM
EC50 [5]: 101 ± 33 nM

N=C(N)c1ccc2cc(OC(=O)c3ccc(N=C(N)N)cc3)ccc2c1 [Nafamostat, nafamostat]
EC50 [1, 6]: > 42000 nM
EC50 [1, 7]: > 42000 nM
EC50 [1, 8]: > 42000 nM
EC50 ([1]; Severe acute respiratory syndrome coronavirus 2, Vero C1008): > 42000 nM
EC50 [2, 8]: > 42000 nM

GC373
EC50 [3]: 19.7 ± 4.6 nM
EC50 [4]: 74 ± 4.5 nM
EC50 [5]: 29.2 ± 3.7 nM

CN(C)C(=O)COC(=O)Cc1ccc(OC(=O)c2ccc(NC(=N)N)cc2)cc1 [Camostat, camostat]
EC50 [1, 6]: > 42000 nM
EC50 [1, 7]: > 42000 nM
EC50 [1, 8]: > 42000 nM
EC50 [1, 10]: > 42000 nM
EC50 [2, 8]: > 42000 nM

CC(C)C[C@H](NC(=O)c1cc2ccccc2o1)C(=O)N[C@H]1CC[C@@H](C)N(S(=O)(=O)c2ccccn2)CC1=O [Relacatib, relacatib]
EC50 [1, 6]: > 42000 nM
EC50 [1, 7]: > 42000 nM
EC50 [1, 8]: > 42000 nM
EC50 [1, 10]: > 42000 nM
EC50 [2, 8]: > 42000 nM

Cc1cccc(/C=N/Nc2cc(N3CCOCC3)nc(OCCc3ccccn3)n2)c1 [Apilimod, apilimod]
EC50 [1, 7]: > 42000 nM
EC50 [1, 9]: > 42000 nM
EC50 [2, 8]: > 42000 nM
